Measured values published in publication PMC6117412, “Comprehensive Study of the Enzymatic Catalysis of the Electrochemical Oxygen Reduction Reaction (ORR) by Immobilized Copper Efflux Oxidase (CueO) From Escherichia coli” (Frontiers in Chemistry, 2018).

Biological target: T1, CueO (copper efflux oxidase) (Escherichia coli, UniProt P36649)
T1 sequence (P36649 29-516): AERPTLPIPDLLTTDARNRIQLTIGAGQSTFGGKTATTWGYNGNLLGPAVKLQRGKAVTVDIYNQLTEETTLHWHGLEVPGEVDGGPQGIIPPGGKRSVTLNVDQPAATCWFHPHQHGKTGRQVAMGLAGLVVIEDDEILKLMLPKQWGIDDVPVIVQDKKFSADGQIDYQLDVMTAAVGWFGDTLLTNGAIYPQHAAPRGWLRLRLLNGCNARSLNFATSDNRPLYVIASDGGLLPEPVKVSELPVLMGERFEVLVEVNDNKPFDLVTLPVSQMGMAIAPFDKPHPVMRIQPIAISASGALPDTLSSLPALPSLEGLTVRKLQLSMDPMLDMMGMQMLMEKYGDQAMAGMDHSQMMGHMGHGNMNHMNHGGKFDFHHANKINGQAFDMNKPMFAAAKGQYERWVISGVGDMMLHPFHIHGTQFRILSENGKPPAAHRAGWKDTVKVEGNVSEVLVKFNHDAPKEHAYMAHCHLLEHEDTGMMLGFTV
Conditions: immobilised on cysteamine-modified polycrystalline Au; O2-saturated phosphate buffer; 100-200 mM fluoride; direct electron transfer

Compound: F [F−, sodium fluoride]
- cyclic voltammetry and chronoamperometry of electrocatalytic O2 reduction: the current density decreases significantly after the addition of fluoride
